Results from US20170266192A1, “METHODS FOR IMPROVING DIAPHRAGM FUNCTION” (CYTOKINETICS, INC., priority 2012, published 2017).

Experiments:
[1] = tested on: permeabilized single fibers from rabbit psoas muscle; experiment: Skinned fiber tension at constant calcium, rabbit psoas; assay type: cell-based
Experimental: (§1) Muscle tissue for in vitro skinned fiber studies were prepared using a protocol based on Lynch and Faulkner (Am J Physiol 275:C1548-54 (1998)). Briefly, rat diaphragm or rabbit psoas muscles were rapidly dissected and rinsed with physiological saline. Muscles were then incubated in skinning solution (125 mM K-propionate, 20 mM imidazole, 5 mM EGTA, 2 mM MgCl2, 2 mM ATP, pH 7.0) supplemented with 0.5% Brij 58 (Sigma Chemicals, St. Louis, Mo.) or 0.5% Triton X-100 (Sigma Chemicals, St. Louis, Mo.) for 30 minutes at 4° C. Muscles were then placed in storage solution (125 mM K-propionate, 20 mM imidazole, 5 mM EGTA, 2 mM MgCl2, 2 mM ATP, glycerol 50%, pH 7.0) at −20° C. Muscles were incubated in storage solution at −20° C. for later use.
(§2) For skinned fiber analysis, single muscle fibers were dissected from larger segments of tissue in rigor buffer at 4° C. (20 μM MOPS, 5 μM MgCl2, 120 μM potassium acetate, 1 μM EGTA, pH 7.0). […]
(§3) The functional effects of the fast skeletal muscle troponin activator, Compound A (6-bromo-1-(ethylpropyl)imidazo[4,5-b]pyrazin-2-ol), on skeletal muscle force were assessed under isometric conditions in permeabilized single fibers from rabbit psoas muscle and rat diaphragm muscle according to the procedure of Example 1.

[2] = tested on: permeabilized single fibers from rat diaphragm muscle; experiment: Skinned fiber tension at constant calcium, rat diaphragm; assay type: cell-based
Experimental: as §1, §2, §3

[3] = tested on: rat skinned diaphragm fibers; experiment: Force-pCa skinned muscle fiber analysis; assay type: cell-based
Experimental: as §1
For skinned fiber analysis, single muscle fibers were dissected from larger segments of tissue in rigor buffer at 4° C. ([…], pH 7.0). They were then suspended between a 400 A force transducer (Aurora Scientific, Ontario, Canada) and a fixed post and secured with 2-4 μl of a 5% solution of methylcellulose in acetone. Fibers were then incubated at 10° C. in a relaxing buffer ([…], 1 mg/ml creatine kinase, 1 mM DTT, 44 ppm antifoam, pH 7.0) and baseline tension adjusted. Tension was generated in each fiber by changing fiber buffer over to relax buffer supplemented with 1 mM EGTA and one or more concentrations of aqueous calcium chloride. Test articles were added to these buffers in a 1% DMSO solution.
Force production was measured in rat skinned diaphragm fibers exposed to increasing concentrations of calcium in the presence and absence of the fast skeletal muscle troponin activator Compound B, (3-(2-(((trans)-3-fluoro-1-(3-fluoropyridin-2-yl)cyclobutyl)methylamino)pyrimidin-5-yl)benzamide), according to the procedure of Example 1.
Force production was measured in rat skinned diaphragm fibers exposed to increasing concentrations of calcium in the presence and absence of the fast skeletal muscle troponin activator Compound C, 1-(ethylpropyl)-6-ethynylimidazo[4,5-b]pyrazin-2-ol, according to the procedure in Example 1.

rat diaphragm muscle [4] = experiment: Force-frequency relationship, ex vivo electrical field stimulation
Experimental: (§4) Diaphragm contractile force was measured by electrical field stimulation in an organ bath system (Radnoti) based on a standard operating protocol adapted from the Treat NMD website (http://www.treat-nmd.eu/downloads/file/sops/dmd/MDX/DMD M.1.2.002.pdf). The diaphragm and the last floating rib from SHAM and LAD rats were excised, rinsed in physiological saline, and placed in a temperature controlled water-jacketed chamber (26-27° C.) containing Krebs-Henseleit Buffer (118 mM NaCl, 10 mM glucose, 4.6 mM KCl, 1.2 mM KH2PO4, 1.2 mM MgSO4*7H2O, 24.8 mM NaHCO3, 2.5 mM CaCl2, 50 mg/L tubocurarine, 50 U/L insulin, pH:7.4) that was continuously aerated with 95% O2/[…]. After 10 minutes of equilibration, vertical strips spanning the floating rib to the central tendon were cut from diaphragms. Braided silk sutures were tied at the central tendon and floating rib and attached to a force transducer between two platinum electrodes. Diaphragm strips were set to a length that produced maximum twitch tension (Lo). The force-frequency profile of the muscle was obtained by stimulating the muscle at frequencies between 10-150 Hz (Grass Stimulator, 800 ms train duration, 0.6 ms pulse width).
Force production was measured in rat diaphragm muscle ex vivo by electrical field stimulation in the presence and absence of Compound B according to the procedure of Example 6. Compound B was suspended in DMSO and added directly to the bath.
Force production was measured in rat diaphragm muscle ex vivo by electrical field stimulation in the presence and absence of fast skeletal muscle troponin activator Compound D, 1-(2-(((trans)-3-fluoro-1-(3-fluoropyridin-2-yl)cyclobutyl)methylamino)pyrimidin-5-yl)-1H-pyrrole-3-carboxamide according to the procedure of Example 6. Compound D was suspended in DMSO and added directly to the bath.

rat diaphragm muscle [5] = experiment: Diaphragm repeated contraction fatigue analysis; conditions: 5 uM and 10 uM, dose-dependent; 20 Hz stimulation, 10 minutes
Experimental: as §4, with “The force-frequency profile of the muscle was obtained by stimulating the muscle at frequencies between 10-150 Hz (Grass Stimulator, 800 ms train duration, 0.6 ms pulse width).” left out
Following the procedure of Example 7, diaphragms were subjected to repeated electrical stimulations (20 Hz stimulation, 330 ms train duration, 1 train/sec) over a period of 10 minutes. Force production was measured over 600 contractions in rat diaphragm muscle ex vivo by field electrical stimulation in the presence and absence of Compound B (5 uM and 10 uM).

[6] = tested on: WT and SOD1 mouse diaphragm muscle; experiment: Diaphragm force-frequency relationship in a mouse ALS model; conditions: frequencies up to 30 Hz; dose-dependent
Experimental: as §4, with “wild type (WT)” for “SHAM”, “SOD1 mice” for “LAD rats”, “width). Compound C was suspended in DMSO and directly added into the bath.” for “width).”

SOD1 mice = experiment: Unrestrained whole body plethysmography (UWBP); assay type: in vivo, mouse; conditions: 10 mg/kg
Experimental: Wild type (WT) and SOD1 mice were dosed with vehicle or 10 mg/kg Compound C and placed in plethysmography chambers for 30 minutes of acclimatization. After acclimatization, respiratory parameters, including tidal volume, respiratory rate, and minute ventilation, were monitored for 10 minutes at room air. Upon completion of baseline room air measurements, animals were exposed to a 5% CO2 gas mixture for 30 minutes. After the 5% CO2 exposure, animals were re-exposed to room air and monitored.

[7] = tested on: skinned diaphragm fibers from SHAM and LAD rats; experiment: Force-pCa skinned muscle fiber analysis in a rat model of HF; assay type: cell-based; conditions: 3 μM
Experimental: as §1
For skinned fiber analysis, single muscle fibers were dissected from larger segments of tissue in rigor buffer at 4° C. (20 μM MOPS, 5 μM MgCl2, 120 μM potassium acetate, 1 μM EGTA, pH 7.0). They were then suspended between a 400 A force transducer (Aurora Scientific, Ontario, Canada) and a fixed post and secured with 2-4 μl of a 5% solution of methylcellulose in acetone. […]
Force production was measured in skinned diaphragm fibers from SHAM and LAD rats exposed to increasing concentrations of calcium in the presence and absence of Compound D according to the procedure of Example 1.

[8] = skinned fibers, constant calcium, 10 nM-40 μM
[9] = 30 μM, submaximal frequencies of electrical stimulation

## CCC(CC)n1c(O)nc2ncc(Br)nc21 [Compound A, 6-bromo-1-(ethylpropyl)imidazo[4,5-b]pyrazin-2-ol]
[1]; rabbit psoas fibers, constant free calcium 1.78 μM (pCa=5.75), n=3, read-out: EC50, increase in skinned fiber tension
  EC50: 590 nM
[1]; [8]
  tension in rabbit psoas muscle: increased tension
[2]; rat diaphragm fibers, constant free calcium 3.16 μM (pCa=5.5), n=4, read-out: EC50, increase in skinned fiber tension
  EC50: 1200 nM
[2]; [8]
  tension in rat diaphragm muscle: increased tension

## NC(=O)c1cccc(-c2cnc(NC[C@]3(c4ncccc4F)C[C@H](F)C3)nc2)c1 [Compound B, 3-(2-(((trans)-3-fluoro-1-(3-fluoropyridin-2-yl)cyclobutyl)methylamino)pyrimidin-5-yl)benzamide]
[3]; 0.5 uM compound, vehicle −5.43 ± 0.03
  pCa at 50% of Maximum Tension, Log [Ca^2+] (M): −5.78 ± 0.008 M
[3]; 1 uM compound, vehicle −5.43 ± 0.03
  pCa at 50% of Maximum Tension, Log [Ca^2+] (M): −5.90 ± 0.03 M
[3]; 10 μM Compound B
  increase in calcium sensitivity compared to vehicle-only muscle fibers: 10 fold
[3]; 10 uM compound, vehicle −5.43 ± 0.03
  pCa at 50% of Maximum Tension, Log [Ca^2+] (M): −6.46 ± 0.03 M
Rat diaphragm muscle [4]; frequencies up to 30 Hz of electrical stimulation
  force production compared to vehicle-only diaphragms: significantly more force
Rat diaphragm muscle [5]
  force production over 600 contractions compared to vehicle-only diaphragms: significantly more force

## C#Cc1cnc2nc(O)n(C(CC)CC)c2n1 [Compound C, 1-(ethylpropyl)-6-ethynylimidazo[4,5-b]pyrazin-2-ol]
[3]; 0.1 uM compound, vehicle −5.43 ± 0.054
  pCa at 50% of Maximum Tension, Log [Ca^2+] (M): −5.59 ± 0.007 M
[3]; 1 uM compound, vehicle −5.43 ± 0.054
  pCa at 50% of Maximum Tension, Log [Ca^2+] (M): −6.19 ± 0.018 M
[3]; 10 μM Compound C
  increase in calcium sensitivity compared to vehicle-only muscle fibers: 10 fold
[3]; 10 uM compound, vehicle −5.43 ± 0.054
  pCa at 50% of Maximum Tension, Log [Ca^2+] (M): −6.74 ± 0.28 M
[6]
  force production in SOD1 diaphragm muscle compared to vehicle-only: significantly more force
  force production in WT diaphragm muscle compared to vehicle-only: significantly more force
SOD1 mice; after 30 minute exposure to 5% CO2
  tidal volume at recovery compared to vehicle-treated animals: significantly higher tidal volume
SOD1 mice; room air
  tidal volume at baseline compared to vehicle-treated animals: significantly higher tidal volume

## NC(=O)c1ccn(-c2cnc(NCC3(c4ncccc4F)CC(F)C3)nc2)c1 (stereo not drawn) [Compound D, 1-(2-(((trans)-3-fluoro-1-(3-fluoropyridin-2-yl)cyclobutyl)methylamino)pyrimidin-5-yl)-1H-pyrrole-3-carboxamide]
Rat diaphragm muscle [4]; [9]
  force in HF (LAD) diaphragms: significantly increased force
  force in SHAM diaphragms: significantly increased force
[7]
  Ca^2+ sensitivity of HF diaphragm fibers: significantly increased Ca^2+ sensitivity
  Ca^2+ sensitivity of SHAM diaphragm fibers: significantly increased Ca^2+ sensitivity
